Assays:
[1] = test system: human CD33-transfected BV2 cells; experiment: Aβ42 phagocytosis assay (Aβ42 pHrodo uptake); format: cell-based, murine; details: cells pre-treated with millimolar concentration of the ligand, in words
Source text: (§1) Having shown that P22 binds specifically to the sialic acid-binding site of this domain we now have a chemical tool to answer the question of whether the sialic acid-binding site is the appropriate target for small molecule ligands that might promote Aβ uptake. Siglecs preferentially recognize multivalent presentation of their ligands ([Rillahan et al., 2014], [Büll et al., 2016]), and for this reason we conjugated the biotinylated form of P22 to microparticles labeled with both FITC and streptavidin (P22 microparticles) (see Transparent Methods). More than 60% CD33-transfected BV2 cells were positive for P22 microparticles compared with only 30% cells that were only incubated with control particles (unconjugated to P22) (Figure 4A). Although some P22 microparticles also bind to non-transfected cells, the difference remains significant for the cells transfected with CD33. This led us to believe that the compound bound preferentially to CD33 (Figure 4A). […]
(§2) Figure 4 Effect of P22 on Phagocytosis The cells were treated with P22 conjugated to microparticles labeled with both streptavidin and fluorescein isothiocyanate (FITC), or with microparticles without P22 conjugated as control. […] (C) Quantification of phagocytic differentiated human THP-1 cells after incubation with P22 monomer, P22 conjugated microparticles, or microparticles without P22 conjugation. […]

CD33 = test system: CD33; design: method as in Blixt et al., 2003; details: order of magnitude in words; ref Blixt et al., 2003; cited from earlier work
[2] = test system: differentiated THP-1 cells; experiment: THP-1 phagocytosis assay (pHrodo E. coli BioParticles), wild-type cells; format: cell-based, human; details: co-treatment, all treatment groups, in words
Source text: as §1, with “4A).” for “4A). Although some P22 microparticles also bind to non-transfected cells, the difference remains significant for the cells transfected with CD33. This led us to believe that the compound bound preferentially to CD33 (Figure 4A).”
as §2
THP-1 cells (control and CD33KO) were differentiated in growth media (RPMI 1640, 10% FCS) supplemented with 100 ng/mL PMA for 3 days. […] Differentiated cells were then lifted, counted and 75,000 cells/well were plated in a 96 well plate. […]

Structure (SMILES): CC(=O)N[C@H]1[C@H]([C@H](O)[C@H](O)CO)O[C@@](O[C@H]2[C@@H](O)[C@@H](CO)O[C@@H](O[C@H]3[C@H](O)[C@@H](O)C(O)O[C@@H]3CO)[C@@H]2O)(C(=O)O)C[C@@H]1O (stereo partly drawn) [3′-sialyllactose]
- effect on phagocytosis [1]: no difference
- affinity for CD33 (CD33): millimolar

Structure (SMILES): C=C1[C@@H](C)[C@H]2[C@H](Cc3ccccc3)NC(=O)[C@]23[C@H](OC(C)=O)/C=C/[C@@](C)(O)C(=O)[C@@H](C)C/C=C/[C@H]3[C@@H]1O [cytochalasin D]
- effect of co-treatment on phagocytosis [2]: blocked phagocytosis
